{
  "source": "patent US10772900B2",
  "about": "“Drug target for treating veterinary infections and methods of using same” (THE TRUSTEES OF THE UNIVERSITY OF PENNSYLVANIA, priority 2016, dated 2020)",
  "key": {"S. aureus [1]": {"tested_on": "S. aureus", "test": "plate-based fosmidomycin growth assay", "assay_type": "cell-based, Staphylococcus aureus", "settings": "50 μg/mL fosmidomycin, Mueller-Hinton agar, 24 hours at 37° C.", "method": "(§1) The minimal inhibitory concentration (MIC) of various antimicrobials (amoxicillin-clavulanic acid, ampicillin, cefazolin, chloramphenicol, ciprofloxacin, clindamycin, erythromycin, gentamicin, imipenem, oxacillin, penicillin, rifampin, tetracycline, trimethoprim-sulfamethoxazole, and vancomycin) was determined via broth microdilution on a MicroScan Walkaway 40 PC20 Gram-positive combo-panel (Dade Behring, Sacramento, Calif.). Enrofloxacin and marbofloxacin susceptibilities were determined via Kirby-Bauer disk diffusion as these drugs were not available on the pre-configured commercial test panel. Fosmidomycin MIC assays were performed following clinical laboratory standards. Fosmidomycin (Sigma, St. Louis, USA) was filter-sterilized with a […] filter (Pall Corporation, Ann Arbor, USA) and was serially 2-fold diluted in a concentration range of 40.96-0.25 mg/mL. Tubes containing 1 mL Mueller-Hinton broth (Sigma) were inoculated with 5×10^5 colony forming units/mL. […] The MICS were determined by visual inspection. The minimum bactericidal concentration (MBC) was determined by plating 200 μL of the drug-treated cultures onto Mueller-Hinton agar plates (Remel, Lenexa, USA). The lowest concentration at which there was no growth after a 24-hour incubation at 37° C. was determined to be the MBC. […]"}, "S. epidermidis [2]": {"tested_on": "S. epidermidis", "test": "plate-based fosmidomycin growth assay", "assay_type": "cell-based, Staphylococcus epidermidis", "settings": "50 μg/mL fosmidomycin, Mueller-Hinton agar, 24 hours at 37° C.", "method": "as §1"}, "S. schleiferi [3]": {"tested_on": "S. schleiferi", "test": "plate-based fosmidomycin growth assay", "assay_type": "cell-based, Staphylococcus schleiferi", "settings": "50 μg/mL fosmidomycin, Mueller-Hinton agar, 24 hours at 37° C.", "method": "as §1"}, "S. pseudintermedius [4]": {"tested_on": "S. pseudintermedius", "test": "plate-based fosmidomycin growth assay", "assay_type": "cell-based, Staphylococcus pseudintermedius", "settings": "50 μg/mL fosmidomycin, Mueller-Hinton agar, 24 hours at 37° C.", "method": "as §1"}, "S. aureus [5]": {"tested_on": "S. aureus", "test": "MIC and MBC assays in Mueller-Hinton broth", "assay_type": "cell-based", "settings": "Staphylococcus aureus, 37° C., 18-20 hours, read-out: MIC (concentration at which bacteria still grew normally)", "method": "(§2) The minimal inhibitory concentration (MIC) of various antimicrobials (amoxicillin-clavulanic acid, ampicillin, cefazolin, chloramphenicol, ciprofloxacin, clindamycin, erythromycin, gentamicin, imipenem, oxacillin, penicillin, rifampin, tetracycline, trimethoprim-sulfamethoxazole, and vancomycin) was determined via broth microdilution on a MicroScan Walkaway 40 PC20 Gram-positive combo-panel (Dade Behring, Sacramento, Calif.). Enrofloxacin and marbofloxacin susceptibilities were determined via Kirby-Bauer disk diffusion as these drugs were not available on the pre-configured commercial test panel. Fosmidomycin MIC assays were performed following clinical laboratory standards. Fosmidomycin (Sigma, St. Louis, USA) was filter-sterilized with a […] filter (Pall Corporation, Ann Arbor, USA) and was serially 2-fold diluted in a concentration range of 40.96-0.25 mg/mL. Tubes containing 1 mL Mueller-Hinton broth (Sigma) were inoculated with 5×10^5 colony forming units/mL. 50 μL of the appropriate fosmidomycin concentration was added to each tube containing the starter culture, and was incubated at 37° C. overnight with shaking at 250 rpm for 18-20 hours. The MICS were determined by visual inspection. The minimum bactericidal concentration (MBC) was determined by plating 200 μL of the drug-treated cultures onto Mueller-Hinton agar plates (Remel, Lenexa, USA). The lowest concentration at which there was no growth after a 24-hour incubation at 37° C. was determined to be the MBC. For the plate-based fosmidomycin growth assay, overnight cultures of Staphylococcus species grown in Mueller-Hinton broth were sub-cultured to Mueller-Hinton agar plates containing 50 μg/mL fosmidomycin and were incubated for 24 hours at 37° C. All assays were performed and the results were interpreted using Clinical Laboratory Standards Institute guidelines (CLSI. (2013) Approved Standard-Fourth Edition. Clinical and Laboratory Standards Institute, Wayne, Pa., USA)."}, "S. epidermidis [6]": {"tested_on": "S. epidermidis", "test": "MIC and MBC assays in Mueller-Hinton broth", "assay_type": "cell-based", "settings": "Staphylococcus epidermidis, 37° C., 18-20 hours, read-out: MIC (concentration at which bacteria still grew normally)", "method": "as §2"}, "S. lugdunensis": {"tested_on": "S. lugdunensis", "test": "MIC and MBC assays in Mueller-Hinton broth", "assay_type": "cell-based", "settings": "Staphylococcus lugdunensis, 37° C., 18-20 hours, read-out: MIC (concentration at which bacteria still grew normally)", "method": "as §2"}, "S. schleiferi [7]": {"tested_on": "S. schleiferi", "test": "MIC and MBC assays in Mueller-Hinton broth", "assay_type": "cell-based, Staphylococcus schleiferi", "method": "as §2"}, "S. pseudintermedius [8]": {"tested_on": "S. pseudintermedius", "test": "MIC and MBC assays in Mueller-Hinton broth", "assay_type": "cell-based, Staphylococcus pseudintermedius", "method": "as §1"}, "S. sciuri": {"tested_on": "S. sciuri", "test": "MIC and MBC assays in Mueller-Hinton broth", "assay_type": "cell-based, Staphylococcus sciuri", "method": "as §1"}, "[9]": {"test": "fosmidomycin safety trial for otic application in dogs", "assay_type": "in vivo, dog", "settings": "100 micrograms in sterile water twice daily to both ears, 10 days", "method": "FIGS. 7A-7C are a series of plots illustrating the outcome of a fosmidomycin safety trial for otic application in dogs. Five colony dogs were used in the safety study. Four of the five dogs were homozygous for ectodermal dysplasia, while the remaining dog was a carrier (heterozygote). Each dog was treated with 100 micrograms of fosmidomycin resuspended in water and applied twice daily to both ears. Pain and inflammation were assessed using the Short Form of the Glasgow Composite Pain Scale (FIG. 7A) and the Otitis Index Score (FIG. 7B and FIG. 7C), respectively. Clinical scoring was carried out prior to fosmidomycin treatment (“pre”), each day of drug application for 10 days, and one day after the cessation of treatment (“post”). Bars represent the mean and standard deviation of scores for the group of 5 dogs at each timepoint. Dotted lines represent field-standard thresholds for clinically significant pain or inflammation.\nFive research dogs were used in a safety study testing otic application of fosmidomycin. Four of the five dogs were homozygous for ectodermal dysplasia, while the remaining dog was a carrier (heterozygote). […] Pain and inflammation were assessed using the Short Form of the Glasgow Composite Pain Scale (FIG. 7A) and the Otitis Index Score (FIG. 7B and FIG. 7C), respectively. […]"}, "Plasmodium falciparum [10]": {"tested_on": "Plasmodium falciparum", "settings": "clinical trials, malaria, administered alone or in combination with clindamycin; cited from earlier work"}, "Plasmodium falciparum [11]": {"tested_on": "Plasmodium falciparum", "settings": "cited from earlier work"}, "[12]": {"settings": "plated on Mueller-Hinton agar, 24-hour incubation at 37° C."}},
  "data": [
    {"smiles": "O=CN(O)CCCP(=O)(O)O", "note": "[fosmidomycin]", "values": [
      {"measurement": "growth on agar plates containing fosmidomycin", "setting": "S. aureus [1]", "value": "grew"},
      {"measurement": "growth on agar plates containing fosmidomycin", "setting": "S. epidermidis [2]", "value": "grew"},
      {"measurement": "growth on agar plates containing fosmidomycin", "setting": "S. schleiferi [3]", "value": "completely restricted growth"},
      {"measurement": "growth on agar plates containing fosmidomycin", "setting": "S. pseudintermedius [4]", "value": "completely restricted growth"},
      {"measurement": "MIC", "setting": "S. aureus [5]", "value": "> 256", "unit": "µg/mL"},
      {"measurement": "MIC", "setting": "S. epidermidis [6]", "value": "> 256", "unit": "µg/mL"},
      {"measurement": "MIC", "setting": "S. lugdunensis", "value": "> 256", "unit": "µg/mL"},
      {"measurement": "inhibition of multi-drug resistant strain", "setting": "S. schleiferi [7]; S. schleiferi strain 1360-13, multi-drug resistant phenotype", "value": "inhibited"},
      {"measurement": "MIC", "setting": "S. schleiferi [7]; Staphylococcus schleiferi, Mueller-Hinton broth, 37° C., 18-20 hours, read-out: MIC (inhibited by concentrations as low as)", "value": "≥ 0.5", "unit": "µg/mL"},
      {"measurement": "MBC (killed by concentrations of)", "setting": "S. schleiferi [7]; [12]", "value": "4 to 16", "unit": "µg/mL"},
      {"measurement": "MIC", "setting": "S. pseudintermedius [8]; Staphylococcus pseudintermedius, Mueller-Hinton broth, 37° C., 18-20 hours, read-out: MIC (inhibited by concentrations as low as)", "value": "≥ 0.5", "unit": "µg/mL"},
      {"measurement": "MBC (killed by concentrations of)", "setting": "S. pseudintermedius [8]; [12]", "value": "4 to 16", "unit": "µg/mL"},
      {"measurement": "MIC", "setting": "S. sciuri; Mammaliicoccus sciuri, Mueller-Hinton broth, 37° C., 18-20 hours, read-out: MIC (inhibited by concentrations as low as)", "value": "≥ 0.5", "unit": "µg/mL"},
      {"measurement": "MBC (killed by concentrations of)", "setting": "S. sciuri; [12]", "value": "4 to 16", "unit": "µg/mL"},
      {"measurement": "inflammation score (Otitis Index Score)", "setting": "[9]", "value": "clinically insignificant"},
      {"measurement": "pain score (Short Form of the Glasgow Composite Pain Scale)", "setting": "[9]", "value": "clinically insignificant"},
      {"measurement": "cure rates", "setting": "Plasmodium falciparum [10]", "value": "85-100%"},
      {"measurement": "killing the parasite in culture", "setting": "Plasmodium falciparum [11]", "value": "effective"}
    ]}
  ]
}
